# Test system: patients with advanced, refractory solid tumours
# Test: Phase I dose-escalation study J102 (Japan): safety, DLT, MTD
# Assay type: in vivo
# Description: Studies were approved by the Institutional Review Board at the participating institutions and regulatory authorities. Written informed consent in English and Japanese was obtained from all patients prior to enrollment.
# Secondary and exploratory objectives were to evaluate PK, tumour response, and PD effects. Treatment-emergent adverse events (TEAE) were graded using the Common Terminology Criteria for Adverse Events version 4.0. A dose-limiting toxicity (DLT) was defined as a grade ≥3 clinically significant toxicity, with the exceptions of grade ≥4 anaemia and prolonged grade 3 neutropenia. Both studies were open-label, phase I dose-escalation studies. In Japan, the study was conducted at a single centre, while the US study was conducted at three sites. […] In the US, an accelerated titration design was used at low doses followed by a mCRM with EWOC. Briefly, the dose was escalated based on safety data in a single patient until a grade 2 or higher toxicity was observed during cycle 1 or the DLT period (days 1–28). […] Prophylactic granulocyte colony-stimulating factor and antiemetics were not permitted during cycle 1.
# [1] = 96 mg, Japanese cohort (56–96 mg group, n = 6)
# [2] = 4–32 mg Japanese cohort (n = 12)
# [3] = 56–96 mg Japanese cohort (n = 6)
compound,measurement,setting,value
CC(=O)N1CCN(c2nc3c(N4CCOCC4)nc(-c4cnc(N)nc4)nc3n2CC(F)(F)F)C[C@H]1C [DS-7423],"Hyperglycaemia G3, n patients","56 mg, Japanese cohort (56–96 mg group, n = 6)",1
same,"Diarrhoea G3, n patients",[1],1
same,"Hyperglycaemia G3, n patients",[1],1
same,"AST increased (TEAE), n patients",160 mg Japanese cohort (n = 3),0
same,"Abdominal pain (TEAE), n patients",160 mg Japanese cohort (n = 3),1
same,"Back pain (TEAE), n patients",160 mg Japanese cohort (n = 3),0
same,"Blood creatinine increased (TEAE), n patients",160 mg Japanese cohort (n = 3),0
same,"Constipation (TEAE), n patients",160 mg Japanese cohort (n = 3),1
same,"Cough (TEAE), n patients",160 mg Japanese cohort (n = 3),2
same,"Decreased appetite (TEAE), n patients",160 mg Japanese cohort (n = 3),3
same,"Decreased appetite G3, n patients",160 mg Japanese cohort (n = 3),1
same,"Dehydration (TEAE), n patients",160 mg Japanese cohort (n = 3),0
same,"Diarrhoea (TEAE), n patients",160 mg Japanese cohort (n = 3),2
same,"Diarrhoea G3, n patients",160 mg Japanese cohort (n = 3),1
same,"Dry mouth (TEAE), n patients",160 mg Japanese cohort (n = 3),0
same,"Dysgeusia (TEAE), n patients",160 mg Japanese cohort (n = 3),2
same,"Dyspnea (TEAE), n patients",160 mg Japanese cohort (n = 3),1
same,"Edema (TEAE), n patients",160 mg Japanese cohort (n = 3),1
same,"Fatigue (TEAE), n patients",160 mg Japanese cohort (n = 3),1
same,"Hyperglycaemia (TEAE), n patients",160 mg Japanese cohort (n = 3),1 (1 G3)
same,"Hyperglycaemia G3, n patients",160 mg Japanese cohort (n = 3),1 (1 G3)
same,"Lung infection/ pneumonia (TEAE), n patients",160 mg Japanese cohort (n = 3),0
same,"Nausea (TEAE), n patients",160 mg Japanese cohort (n = 3),3
same,"Pyrexia (TEAE), n patients",160 mg Japanese cohort (n = 3),1
same,"Rash (TEAE), n patients",160 mg Japanese cohort (n = 3),2
same,"Stomatitis (TEAE), n patients",160 mg Japanese cohort (n = 3),2
same,"Vomiting (TEAE), n patients",160 mg Japanese cohort (n = 3),2
same,"AST increased (TEAE), n patients",240 mg Japanese cohort (n = 6),0
same,"Abdominal pain (TEAE), n patients",240 mg Japanese cohort (n = 6),1
same,"Back pain (TEAE), n patients",240 mg Japanese cohort (n = 6),1
same,"Blood creatinine increased (TEAE), n patients",240 mg Japanese cohort (n = 6),0
same,"Constipation (TEAE), n patients",240 mg Japanese cohort (n = 6),1
same,"Cough (TEAE), n patients",240 mg Japanese cohort (n = 6),1
same,"Decreased appetite (TEAE), n patients",240 mg Japanese cohort (n = 6),4
same,"Dehydration (TEAE), n patients",240 mg Japanese cohort (n = 6),0
same,"Diarrhoea (TEAE), n patients",240 mg Japanese cohort (n = 6),5
same,"Dry mouth (TEAE), n patients",240 mg Japanese cohort (n = 6),1
same,"Dysgeusia (TEAE), n patients",240 mg Japanese cohort (n = 6),3
same,"Dyspnea (TEAE), n patients",240 mg Japanese cohort (n = 6),0
same,"Edema (TEAE), n patients",240 mg Japanese cohort (n = 6),3
same,"Fatigue (TEAE), n patients",240 mg Japanese cohort (n = 6),2
same,"Hyperglycaemia (TEAE), n patients",240 mg Japanese cohort (n = 6),1 (1 G4)
same,"Hyperglycaemia G4, n patients",240 mg Japanese cohort (n = 6),1 (1 G4)
same,"Lung infection/ pneumonia (TEAE), n patients",240 mg Japanese cohort (n = 6),1 (1 G3)
same,"Lung infection/ pneumonia G3, n patients",240 mg Japanese cohort (n = 6),1 (1 G3)
same,"Nausea (TEAE), n patients",240 mg Japanese cohort (n = 6),6
same,"Pyrexia (TEAE), n patients",240 mg Japanese cohort (n = 6),2
same,"Rash (TEAE), n patients",240 mg Japanese cohort (n = 6),5
same,"Stomatitis (TEAE), n patients",240 mg Japanese cohort (n = 6),6
same,"Vomiting (TEAE), n patients",240 mg Japanese cohort (n = 6),3
same,"AST increased (TEAE), n patients",[2],0
same,"Abdominal pain (TEAE), n patients",[2],1
same,"Back pain (TEAE), n patients",[2],1
same,"Blood creatinine increased (TEAE), n patients",[2],1
same,"Constipation (TEAE), n patients",[2],3
same,"Cough (TEAE), n patients",[2],1
same,"Decreased appetite (TEAE), n patients",[2],7
same,"Dehydration (TEAE), n patients",[2],0
same,"Diarrhoea (TEAE), n patients",[2],6
same,"Dry mouth (TEAE), n patients",[2],0
same,"Dysgeusia (TEAE), n patients",[2],3
same,"Dyspnea (TEAE), n patients",[2],2
same,"Edema (TEAE), n patients",[2],2
same,"Fatigue (TEAE), n patients",[2],5
same,"Hyperglycaemia (TEAE), n patients",[2],0
same,"Lung infection/ pneumonia (TEAE), n patients",[2],0
same,"Nausea (TEAE), n patients",[2],6
same,"Pyrexia (TEAE), n patients",[2],0
same,"Rash (TEAE), n patients",[2],3
same,"Stomatitis (TEAE), n patients",[2],3
same,"Vomiting (TEAE), n patients",[2],4
same,"AST increased (TEAE), n patients",[3],1
same,"Abdominal pain (TEAE), n patients",[3],1
same,"Back pain (TEAE), n patients",[3],0
same,"Blood creatinine increased (TEAE), n patients",[3],0
same,"Constipation (TEAE), n patients",[3],1
same,"Cough (TEAE), n patients",[3],1
same,"Decreased appetite (TEAE), n patients",[3],2
same,"Dehydration (TEAE), n patients",[3],0
same,"Diarrhoea (TEAE), n patients",[3],4
same,"Dry mouth (TEAE), n patients",[3],1
same,"Dysgeusia (TEAE), n patients",[3],1
same,"Dyspnea (TEAE), n patients",[3],0
same,"Edema (TEAE), n patients",[3],1
same,"Fatigue (TEAE), n patients",[3],3
same,"Hyperglycaemia (TEAE), n patients",[3],2
same,"Lung infection/ pneumonia (TEAE), n patients",[3],0
same,"Nausea (TEAE), n patients",[3],1
same,"Pyrexia (TEAE), n patients",[3],0
same,"Rash (TEAE), n patients",[3],4
same,"Stomatitis (TEAE), n patients",[3],1
same,"Vomiting (TEAE), n patients",[3],1
same,Grade 3 DLT,"Japanese study, 240-mg cohort",lung infections and hyperglycaemia
same,MTD,"Japanese study, Asian patients",240 mg

# Source: article PMC6008299, “Impact of race on dose selection of molecular-targeted agents in early-phase oncology trials” (British Journal of Cancer, 2018)
